From patent US10765625B2, “Knottin-drug conjugates and methods of using the same” (THE BOARD OF TRUSTEES OF THE LELAND STANFORD JUNIOR …, priority 2016, dated 2020)
Read-outs that look alike come from different tables or passages of the source.

Columns and labels:
U87MG cells [1] = assay: Cell proliferation, CCK-8 colorimetric assay; type: cell-based
Description: (§1) U87MG, and PANC-1 cells were grown in Dulbecco's Modified Eagle Medium (DMEM) with 10% fetal bovine serum (FBS) and 1% penicillin/streptomycin. MDA-MB-468 cells were grown in DMEM and Ham's F-12 medium (DMEM/F12) with 10% FBS and 1% penicillin/streptomycin. A2780 and BxPC3 cells were grown in Roswell Park Memorial Institute medium (RPMI) 1640+L-glutamine, with 10% FBS and 1% penicillin/streptomycin. D270 cells were grown in MEM (Richter's modification, no phenol red) with 10% FBS and 0.1% Gentamicin. Unless otherwise specified, cells were incubated at 37° C., 5% CO2. Flow cytometry was performed using an EMD Millpore Guava EasyCyte 8HT flow cytometer and the resulting data were evaluated using FlowJo software provided by TreeStar, Inc. Cell proliferation was measured using the Dojindo Cell Counting Kit-8 by replacing the media in each well with 100 μL of media containing 10% WST-8. After incubation for 1 h at 37° C., absorbance, A, at 450 nm was measured with a BioTek Synergy H4 microtiter plate reader. The background signal of CCK-8 alone was subtracted from all samples. Cell proliferation was then expressed as a percentage of absorbance relative to the control of untreated cells (Equation 2). Nonlinear regression analysis was performed using GraphPad Prism.
Next, the potency of each KDC was tested in a cell-proliferation experiment. […] Cells were seeded in a 96-well plate at a density of 2,500 cells per well and grown overnight at 37° C., 5% CO2 in DMEM with 10% FBS and 1% penicillin/streptomycin. Cells were subsequently treated with 100 μL of fresh media, containing varying concentrations of drug, protein, or protein-drug conjugate and incubated for 4 d at 37° C., 5% CO2. Cell proliferation was measured according to the method described in Section 1.3. Error bars represent the standard deviation of experiments performed in triplicate. […] Given that the linker must be cleaved to release free Gemcitabine in order for the payload to become active, the low potency of 5b can be explained by the greater stability of the carbamate group as compared to the other linkers tested.

U87MG cells [2] = assay: Premature drug release study: cell proliferation (CCK-8) with hENT1 inhibitor 6 co-administered; type: cell-based; settings: for Effect of hENT1 inhibitor 6 on potency (ED50) (in words): U87MG cells, increasing concentrations of 6 up to 10 μM; for Fold Increase in ED50 in U87MG Cells: ED50 with 6 / ED50 without 6, minus 1
Description: as §1
The relative extent of premature drug-release in the cases of 5a, 5c, and 5d was next determined in order to identify the linker best-suited for delivering the drug payload intracellularly. An established technique for blocking the cellular uptake of Gemcitabine by using S (4-nitrobenzyl)-6-thioinosine (6) was employed, which is known to inhibit human equilibrative nucleoside transporters, such as hENT1. Because hENT1 is a critical regulator of the cellular internalization of Gemcitabine, it was reasoned that by inhibiting its activity with 6, the cytotoxic effect of any drug payload that was released in the extracellular environment could be diminished. It was anticipated that this would allow the distinction between KDCs that were potent due to the undesirable release of Gemcitabine outside of the cell from those that released Gemcitabine intracellularly (FIG. 6). The extent of premature drug release in the extracellular environment was studied by inhibiting activity of nucleoside transporters (such as hENT1) of U87MG cells through the use of the hENT1 inhibitor S-(4-nitrobenzyl)-6-thioinosine (6). […] In a similar fashion, it was expected that for KDCs which released a significant amount of the drug payload in the extracellular environment, an increase in the concentration of 6 should result in a concomitant increase in ED50 value.
Media used to prepare varying concentrations of drug, protein, or protein-drug conjugate also contained varying concentrations of the hENT1 inhibitor, 6. Additionally, prior to treatment, cell were incubated at 37° C., 5% CO2 with fresh media containing the varying concentrations of 6 for 2 h. Cell proliferation was measured using the Cell Counting Kit-8 by replacing the media in each well with 100 μL of media containing 10% WST-8. After incubation for 1 h at 37° C., absorbance at 450 nm was measured with a Synergy H4 microtiter plate reader. ED50 values were determined by nonlinear regression analysis. Example dose-response curves for 3 (FIG. 7) and 5d (FIG. 8) are provided. Cell proliferation was measured according to the method described in Section 1.3. Error bars represent the standard deviation of experiments performed in triplicate.
These values were normalized as Fold Increase in ED50 (defined in Equation 2) by dividing the ED50 of each drug when 6 was co-administered at concentration=C by the ED50 of that same drug when no 6 was added, then subtracting 1 (thus, a “0-fold increase” would mean no increase, while a “1-fold increase” would mean that the ED50 value had doubled). Fold Increase in ED50 for each drug at each concentration of 6 is provided in Table 5, and these values were used to generate FIG. 9.

U87MG cells [3] = assay: Integrin-blocking competition: cell proliferation (CCK-8) after pre-treatment with EETI-2.5F (1); type: cell-based; settings: 1 μM 1, 3 h pre-treatment and co-treatment
Description: as §1
One possible explanation for the apparent hENT1-independence of 5d is that its route of internalization could be integrin-mediated. The role of integrin-binding in the biological potency and hENT1-independence of 5d was determined. A competition experiment was carried out in which U87MG cells were pre-treated with unconjugated EETI-2.5F (1) in order to block integrins on the cell surface. The role of integrin-binding was studied by measuring the proliferation of U87MG cells that had been pre-treated with EETI-2.5F (1) when exposed to increasing doses of 3 and KDCs 5a, 5c, and 5d. […] Media used to prepare varying concentrations of drug, protein, or protein-drug conjugate also contained 1 μM of 1. Prior to treatment, cells were incubated for 3 h at 37° C., 5% CO2 with fresh media containing 1 μM 1. After this pre-treatment, cells were incubated with varying concentrations of 5a, 5c, or 5d for 24 h and then media was replaced with fresh media and cells were incubated for an additional 48 h. Cell proliferation was measured using the Cell Counting Kit-8 by replacing the media in each well with 100 μL of media containing 10% WST-8. After incubation for 1 h at 37° C., absorbance at 450 nm was measured with a Synergy H4 microtiter plate reader. Cell proliferation was measured according to the method described in Section 1.3. Error bars represent the standard deviation of experiments performed in triplicate.

[4] = tested on: A2780 ovarian cancer cells; assay: Cell proliferation, CCK-8 colorimetric assay; type: cell-based; settings: Homo sapiens, 96 h, 4 d after treatment, read-out: ED50 (nM), cell growth inhibition
Description: as §1
(§2) Having identified KDC 5d as a potent inhibitor of U87MG cells with desirable payload-release properties, its efficacy against a variety of other cell lines in comparison with Gemcitabine (3) was next tested. Cells were seeded in a 96-well plate at a density of 2,500 cells per well and grown overnight at 37° C., 5% CO2 in the media described in Section 1.3. Cells were subsequently treated with 100 μL of fresh media, containing 50 nM of 3 or 5d. Cells were incubated at 37° C., 5% CO2 for 4 d. Cell proliferation was measured using the Cell Counting Kit-8 by replacing the media in each well with 100 μL of media containing 10% WST-8. After incubation for 1 h at 37° C., absorbance at 450 nm was measured with a Synergy H4 microtiter plate reader. Cell proliferation was measured according to the method described in Section 1.3. Error bars represent the standard deviation of experiments performed in triplicate.

[5] = tested on: BxPC3 pancreatic cancer cells; assay: Cell proliferation, CCK-8 colorimetric assay; type: cell-based; settings: Homo sapiens, BXPC-3, 96 h, 4 d after treatment, read-out: ED50 (nM), cell growth inhibition
Description: as §1, §2

D270 glioblastoma cells = assay: Cell proliferation, CCK-8 colorimetric assay; type: cell-based; settings: 96 h, 4 d after treatment, read-out: ED50 (nM), cell growth inhibition
Description: as §1, §2

[6] = tested on: MDA-MB-468 breast cancer cells; assay: Cell proliferation, CCK-8 colorimetric assay; type: cell-based; settings: Homo sapiens, MDA-MB-468, 96 h, 4 d after treatment, read-out: ED50 (nM), cell growth inhibition
Description: as §1, §2

[7] = tested on: PANC-1 pancreatic cancer cells; assay: Cell proliferation, CCK-8 colorimetric assay; type: cell-based; settings: Homo sapiens, 96 h, 4 d after treatment, read-out: ED50 (nM), cell growth inhibition
Description: as §1, §2

U87MG cells [8] = assay: Competition binding assay with AF488-labeled EETI-2.5F (AF488-1), flow cytometry; settings: competition with 1 nM AF488-1, 4° C., 3 hours, read-out: IC50 (nM), binding affinity
Description: Once the knottin-drug conjugates 5a-d were prepared, their binding affinity to U87MG glioblastoma cells, which are known to have elevated expression of tumor-associated integrins, was tested. […] To measure the relative binding affinities of knottins 1 and 2 and KDCs 5a-d, competition binding assays were performed using AlexaFluor 488-conjugated EETI-2.5F (AF488-1) as previously described (J. W. Kim, et al., J. Am. Chem. Soc. 2015, 137, 6-9). Cells (5×10^4 per sample) were detached with 0.05% Trypsin-EDTA, washed with IBB (25 mM Tris pH 7.4, 150 mM NaCl, 2 mM CaCl2, 1 mM MgCl2, 1 mM MnCl2, and 0.1% bovine serum albumin), and incubated with 1 nM AF488-1 and varying concentrations of competitors in 800 μL of IBB at 4° C. for 3 hours. The cells were washed twice with 800 μL of PBSA (phosphate buffered saline containing 0.1% bovine serum albumin) and the fluorescence of the surface-bound AF488-1 was determined using flow cytometry. The fluorescence was normalized to that of cells treated with AF488-1 alone to obtain the fraction bound. Half-maximal inhibitory concentration (IC50) values were determined by nonlinear regression analysis. Error bars represent the standard deviation of experiments performed in triplicate.

EC50 (U87MG cells [1]; Homo sapiens, U-87 MG, 96 h, U87MG cells, 4 d incubation, vs untreated control, read-out: ED50 (nM), potency) [nM]	EC50 (U87MG cells [1]; Homo sapiens, U-87 MG, 96 h, U87MG glioblastoma, 4 d after treatment, read-out: ED50 (nM), cell growth inhibition) [nM]	EC50 [4] [nM]	EC50 [5] [nM]	EC50 (D270 glioblastoma cells) [nM]	EC50 [6] [nM]	EC50 [7] [nM]	Compound	Effect of hENT1 inhibitor 6 on potency (ED50) (in words) (U87MG cells [2])	Fold Increase in ED50 in U87MG Cells (U87MG cells [2]; [6] = 0 nM)	Fold Increase in ED50 in U87MG Cells (U87MG cells [2]; [6] = 1 nM)	Fold Increase in ED50 in U87MG Cells (U87MG cells [2]; [6] = 10 nM)	Fold Increase in ED50 in U87MG Cells (U87MG cells [2]; [6] = 100 nM)	Fold Increase in ED50 in U87MG Cells (U87MG cells [2]; [6] = 1000 nM)	Fold Increase in ED50 in U87MG Cells (U87MG cells [2]; [6] = 10000 nM)	Effect of integrin blocking by pre-treatment with 1 on potency (in words) (U87MG cells [3])	IC50 (U87MG cells [8]) [nM]	Potency / growth inhibition in U87MG cells (in words) (U87MG cells [1]; U87MG cells, 4 d)	EC50 (U87MG cells [1]; U87MG cells, 4 d incubation, vs untreated control, read-out: ED50 (nM), potency) [nM]
1.1 ± 1.4	1.7 ± 1.4	0.5 ± 0.02	18.4 ± 1.3	1.5 ± 0.4	17.3 ± 6.8	52.8 ± 4.9	Nc1ccn([C@@H]2O[C@H](CO)[C@@H](O)C2(F)F)c(=O)n1 [compound 3, Gemcitabine, reference compound]	increased significantly	0	0.2 ± 0.4	1.5 ± 0.1	15.8 ± 0.3	44.7 ± 0.3	128.6 ± 2.8	no effect on potency	–	–	–
–	–	–	–	–	–	–	CC(C)C[C@@H]1NC(=O)[C@@H]2CSSC[C@@H](C(=O)NCC(=O)O)NC(=O)[C@H](Cc3ccccc3)NC(=O)CNC(=O)[C@H](CC(N)=O)NC(=O)[C@@H]3CCCN3C(=O)CNC(=O)[C@@H]3CSSC[C@H](NC(=O)[C@H]([C@@H](C)O)NC(=O)[C@H](CC(C)C)NC(=O)[C@@H]4CCCN4C(=O)[C@@H]4CCCN4C(=O)[C@H](CC(N)=O)NC(=O)[C@H](CC(=O)O)NC(=O)CNC(=O)[C@H](CCCNC(=N)N)NC(=O)[C@@H]4CCCN4C(=O)[C@H](CCCNC(=N)N)NC(=O)[C@@H]4CCCN4C(=O)[C@@H](NC(=O)CN)CSSC[C@H](NC(=O)CNC(=O)[C@H](C)NC1=O)C(=O)N[C@@H](C(C)C)C(=O)N3)C(=O)N[C@@H](CCCn1cc(CCC(=O)Nc3ccn([C@@H]4O[C@H](CO)[C@@H](O)C4(F)F)c(=O)n3)nn1)C(=O)N[C@@H](CCC(N)=O)C(=O)N[C@@H](CC(=O)O)C(=O)N[C@@H](CO)C(=O)N[C@@H](CC(=O)O)C(=O)N2 [5c]	much less sensitive	0	0.5 ± 0.2	1.0 ± 0.2	7.8 ± 4.8	18.0 ± 5.2	31.1 ± 5.1	did not diminish the potency	2.8 ± 0.2	low-nanomolar ED50 values	8.9 ± 1.2
